Paper PMC7515829, “HKDC1 C-terminal based peptides inhibit extranodal natural killer/T-cell lymphoma by modulation of mitochondrial function and EBV suppression” (Leukemia, 2020)
Read-outs that look alike come from different tables or passages of the source.

Assays:
Zta = conditions: SNK6 xenograft, nude mice; intratumoral 50 µM peptide every 2 days from day ~18; tissue day 50; IHC vs CTL; n = 3
Protocol: To measure malignant SNK6 xenograft growth, 100 µl of 1 × 10^5 SNK6 cells in PBS were mixed with 100 µl growth factor-reduced basement membrane matrix (Matrigel™, BD Biosciences) resulting in 200 µl of solution that was injected subcutaneously along the mouse flank at each intended tumor site. Tumor size was measured using a digital caliper and volume was calculated, and mice were randomly divided into four groups (n = 9 per group) when the tumor volume reached 50–100 mm^3 on day ~18 after tumor inoculation and given treatment as follows: Group 1 (control (CTL)) was intratumorally injected with HBSS buffer (5.33 mM KCl, 0.44 mM KH2PO4, 138 mM NaCl, 4 mM NaHCO3, 0.3 mM Na2HPO4, and 5.6 mM glucose, pH 7.3) containing 0.05% DMSO; Group 2 (Tf-D-HKN15) received HBSS buffer containing 0.05% DMSO with 50 µM Tf-D-HKN15 peptides; Group 3 (Tf-D-HKC15) received HBSS buffer containing 0.05% DMSO with 50 µM Tf-D-HKC15 peptides; Group 4 (Tf-D-HKC8) received HBSS buffer containing 0.05% DMSO with 50 µM Tf-D-HKC8 peptides. […] Beginning on the day of inoculation, mouse weight and tumor volume were monitored every 2 days. Mice were monitored for changes in body weight and sacrificed when values fell below 20% of their initial weight; the survival curve was calculated and the final tumor tissues were isolated for biomedical analysis. […]

SNK6 xenograft [1] = test: Mouse survival, Kaplan–Meier analysis; assay type: in vivo; conditions: nude mice, intratumoral 50 µM peptide every 2 days from day ~18, compared with CTL group, n = 9
Protocol: Statistical analysis. The data was given as mean ± SEM; all of the experiments were performed at least in quadruplicate unless otherwise indicated. One-way ANOVA followed by the Bonferroni post hoc test was used to determine statistical significance of different groups. The mouse survival curve was determined through Kaplan-Meier survival analysis using SPSS 22 software, and a P value < 0.05 was considered significant (8).

HKDC1/VDAC1 = HKDC1/VDAC1 (Homo sapiens, UniProt P21796); test: IP/WB HKDC1 binding with VDAC1 in xenograft tumor tissue; assay type: in vivo, mouse; set-up: from tissue; host or cells: SNK6 xenograft tumor tissue from Balb/c athymic nude mice; conditions: SNK6 xenograft, nude mice; intratumoral 50 µM peptide every 2 days from day ~18; tissue day 50; IP/WB vs CTL; n = 5
Protocol: Immunoprecipitation (IP) and Western Blotting (WB). Cell lysates were pre-cleared by pre-immune IgG plus Protein A agarose beads for 2 hours, and the supernatants were immunoprecipitated by the indicated antibodies and a 50% slurry of Protein A Agarose beads overnight at 4 °C (9). After washing with buffer containing 50 mM Tris, pH 7.5, 150 mM NaCl, 1% NP-40, and 0.5% deoxycholate with protease inhibitors, proteins were released, separated on 10% SDS-PAGE gels, blotted by primary antibodies, and then simultaneously incubated with the differentially labeled species-specific secondary antibodies, anti-RABBIT IRDye™ 800CW (green) and anti-MOUSE (or goat) ALEXA680 (red). Membranes were scanned and quantitated by the ODYSSEY Infrared Imaging System (LI-COR, NE) (10).
Biomedical analysis of tumor tissues.

SNK6 cells [2] = test: Cell invasion assay; assay type: cell-based, human; conditions: 0.5 µM peptide, 6 h, Matrigel, vs CTL, n = 5 (Fig. 5c)
Protocol: (§1) Migration and invasion assays. Cell migration and invasion assays were performed in 24-well chemotaxis plates with an 8μm polycarbonate filter membrane. The plates were coated with 20μg Matrigel for invasion assays and uncoated for migration assays. Invasion and migration were expressed as the number of migrated cells bound per microscopic field and averaged from at least four fields per assay in at least 4 experiments (18, 19).

MNCs from ENKTL patients = conditions: read-out: IC50 (µM) ENKTL, half-maximal cell death activity, peptides 0.1–15 µM, 6 h, PI staining, FACS, mean ± SEM, n in cell
Source text: (§2) We investigated the potential role of HKDC1-based peptides in ENKTL cells that were isolated from the MNCs of ENKTL patients or SNK6 cell line. Three different kinds of HKDC1-based targeting peptides, including the last 15 aa at either the N-terminal (HKN15) or C-terminal (HKC15), or the last eight aa at the C-terminal (HKC8) were selected; four different kinds of cell-penetrating sequences were employed to deliver the HKDC1-based peptides, including Antp (a 16 penetrating residue long sequence from the Drosophila antennapedia-homeodomain), penetration-accelerating segment, TAT (HIV-1 TAT sequence), and Tf (the Tf receptor (TfR) internalization sequence) sequences. All of the aa with the D-configuration (marked as D) were synthesized as retro-inverso peptides. […] We then evaluated the toxic effect of two peptides (including Tf-D-HKC15 and Tf-D-HKC8) on different kinds of primary and cancer cell lines (see details in Table 2). […] We also evaluated the peptide delivery efficiency using ^125I-labeled uptake assay for both Tf-D-HKC8 and Tf-D-HKC15 peptides.
(§3) Measurement of apoptosis and cell death. Apoptosis was evaluated by TUNEL assay using the In Situ Cell Death Detection Kit™ (Roche). Cells were fixed in 4% paraformaldehyde and labeled with TUNEL reagents. Stained cells were photographed by a fluorescence microscope (11). For cell death analysis, the propidium iodide (PI) staining was performed by addition of 6.25 µg/ml of PI to the cells, and cell death was immediately evaluated by FACS analysis (3).

SNK6 cells [3] = test system: SNK6 cells
Source text: as §2, §3

EBV [4] = test: EBV viral genomes/cell by qPCR in tumor tissue; assay type: in vivo, mouse; conditions: SNK6 xenograft, nude mice; intratumoral 50 µM peptide every 2 days from day ~18; tissue day 50; qPCR vs CTL; n = 4
Protocol: (§4) Detection of EBV copy number. Genomic DNA was extracted from treated SNK-6 cells or SNK-6 tumor tissue in mice using a QIAamp DNA Mini Kit (Qiagen). The EBV DNA copy number was measured through qPCR using 50ng of total DNA with EBV BMRF1 primers (see Table 1), and the results were normalized using cellular β-actin (primers see Table 1) as an internal control (13, 14). The Namalwa cell line, which contains 2 EBV viral genome copies, was used as a standard to prepare calibration curves for both EBV BMRF1 and β-actin genes, and the EBV viral load was presented as the number of viral genomes per cell (15, 16).

SNK6 cells [5] = test: Cell proliferation by thymidine incorporation; assay type: cell-based, human; conditions: 0.5 µM peptide, 6 h, vs CTL, n = 5 (Fig. 5a)
Protocol: DNA synthesis by [^3H]-thymidine incorporation. Cell proliferation was evaluated as the rate of DNA synthesis by [^3H]-methylthymidine incorporation (17). […] At the end of the treatment, cells were incubated with serum-free media containing ^3H-methylthymidine (0.5 µCi/well) for 2 hours and then washed twice with PBS. Cellular DNA was precipitated using 10% trichloroacetic acid and solubilized with 0.4M NaOH (0.5 ml/well). Incorporation of ^3H-methylthymidine into the DNA was measured in a scintillation counter and was determined as counts per minute (CPM) (8).

SNK6 cells [6] = test: Cell migration assay; assay type: cell-based, human; conditions: 0.5 µM peptide, 6 h, vs CTL, n = 5 (Fig. 5b)
Protocol: as §1

SNK6 xenograft [7] = test: Superoxide anion release from tumor tissue; assay type: in vivo, mouse; conditions: nude mice, intratumoral 50 µM peptide every 2 days from day ~18, tissue day 50, chemiluminescence vs CTL, n = 5
Protocol: In vivo superoxide release analysis. Superoxide anion (O2^.-) release from tumor tissues was determined using a luminol-EDTA-Fe enhanced chemiluminescence (CL) system supplemented with DMSO-TBAC (Dimethyl sulfoxide-tetrabutyl-ammonium chloride) solution for extraction of released O2^.- from tissues, as described previously (11). Superoxide levels were calculated from the standard curve generated by the xanthine/xanthine oxidase reaction (8).

EBV [8] = test: EBV viral genomes/cell by qPCR in SNK6 cells; assay type: cell-based; conditions: 0.5 µM peptide, 6 h, vs CTL, n = 4 (Fig. 3i)
Protocol: as §4

[9] = read-out: IC50 (µM) SNK6, half-maximal cell death activity, SNK6 cells, peptides 0.1–15 µM, 6 h, PI staining, FACS, mean ± SEM, n in cell (Table 1)

HKDC1/VDAC1, sequence (P21796 2-283 limits assumed): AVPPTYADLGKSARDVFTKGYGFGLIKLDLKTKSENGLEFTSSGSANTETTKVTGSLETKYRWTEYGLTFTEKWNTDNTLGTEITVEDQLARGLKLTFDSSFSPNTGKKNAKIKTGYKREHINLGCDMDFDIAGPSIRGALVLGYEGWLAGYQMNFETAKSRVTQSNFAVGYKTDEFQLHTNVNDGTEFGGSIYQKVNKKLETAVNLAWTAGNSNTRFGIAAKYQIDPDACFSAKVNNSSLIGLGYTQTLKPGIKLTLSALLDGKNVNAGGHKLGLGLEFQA

Row | Substance | Zta gene expression on tumor tissues (IHC) (Zta) [%] | mouse survival (SNK6 xenograft [1]) [%] | HKDC1 binding with VDAC1 in tumor (HKDC1/VDAC1) [%] | cell invasion (SNK6 cells [2]) [%] | IC50 (MNCs from ENKTL patients) [µM] | IC50 (SNK6 cells [3]; [9]) [µM] | EBV genome replication in tumor (EBV [4]) [%] | thymidine incorporation (SNK6 cells [5]) [%] | cell migration (SNK6 cells [6]) [%] | superoxide anion release from tumor (SNK6 xenograft [7]) [%] | EBV genome copies (EBV [8]) [%] | IC50 (SNK6 cells [3]; read-out: Peptide IC50 (µM), cell death, SNK6, Human natural killer/T-cell lymphoma/EBV(+), 0.1–15 µM, 6 h (suspension) or 12 h (adherent cells), PI/FACS, mean ± SEM (Table 2)) [µM]
1 | HAIYPRH-LQQAQKEN [Tf-D-HKC8] | 28 | 335 | 38 | 29 | 0.2 ± 0.1 | 0.3 ± 0.2 | 25 | 28 | 23 | 297 | 21 | 
2 | HAIYPRH-ITAVAKRLQQAQKEN [Tf-D-HKC15] | 64 | 197 | 71 | 61 | 0.9 ± 0.3 | 1.2 ± 0.5 | 59 | 71 | 66 | 203 | 62 | 1.2 ± 0.3
